# From US8809001B2, “High throughput assays for inhibitors and activators of PAQR receptors” (University of Florida Research Foundation, Inc., priority 2007, dated 2014)
# pEC50: −log10 of the molar value. Several values for one entry are separate records, joined by “and”; a condition that tells them apart may be missing. Equal entries are not always repeated.
# Legend:
# [1] = tested on: receptors in Classes I and III; assay: FET3-lacZ response of the human PAQR panel to 10 μM progesterone: Classes I and III; assay type: cell-based
# Source text: (§1) Plasmids and primers. Human PAQRs were cloned into various vectors by PCR from commercially/publically available cDNAs. PAQRs were cloned into the pYES260 (Melcher, 2000), pRS316 (Liu et al., 1992) or pGREG536 (Jansen et al., 2005) expression vectors using gap repair. The pJK90 plasmid containing a Dual Topology Reporter (DTR)-tagged OST4 gene driven by the constitutive TPI1 promoter was kindly provided by Dr. Gunnar von Heijne (Stockholm University) (Kim et al., 2003). The OST4 open reading frame in pJK90 was replaced with the PAQR6 and mPRα open reading frames by gap repair. Primers for all cloning reactions are listed herein. Proteins expressed in pYES260 have an N-terminal 6×-histidine tag followed by a TEV protease cleavage site. Proteins expressed in pGREG536 have an N-terminal 7×-HA tag. Proteins expressed in the pRS316 vector are untagged. The pYES260, pRS316 and pGREG536 vectors allow for galactose-inducible expression via the GAL1 promoter. […] The FET3-lacZ plasmid was previously described (Kupchak et al., 2007). […]
# (§2) Assays and growth conditions. […] Cells were allowed to grow to mid-log phase at which time the activity of the FET3 gene was monitored using a FET3-lacZ promoter-reporter construct. lacZ activities are presented as a percentage of activity seen in untreated cells expressing the appropriate empty expression vector control. […]
# [2] = biological target: T1, mPRα (Homo sapiens, UniProt Q86WK9); assay: cell-based
# T1 construct: Full length and truncated mPRγ and mPRα were expressed in wild type cells grown in 2% galactose from the pGREG536 vector; expressed in transfected cells; host or cells: Saccharomyces cerevisiae (BY4742 wild type; also gpa mutants), GAL1-driven plasmids (TPI1 promoter in pJK90)
# T1 sequence (Q86WK9 1-346): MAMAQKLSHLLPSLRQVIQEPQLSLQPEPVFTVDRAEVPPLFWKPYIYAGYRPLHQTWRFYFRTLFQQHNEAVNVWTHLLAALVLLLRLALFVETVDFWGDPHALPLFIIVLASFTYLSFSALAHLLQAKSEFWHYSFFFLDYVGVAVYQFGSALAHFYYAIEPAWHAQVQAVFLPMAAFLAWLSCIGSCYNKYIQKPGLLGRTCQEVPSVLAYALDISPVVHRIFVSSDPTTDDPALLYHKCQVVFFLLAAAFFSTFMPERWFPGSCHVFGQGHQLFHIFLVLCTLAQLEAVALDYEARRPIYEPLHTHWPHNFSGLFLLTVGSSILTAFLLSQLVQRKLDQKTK
# Source text: Plasmids and primers. Human PAQRs were cloned into various vectors by PCR from commercially/publically available cDNAs. […] The OST4 open reading frame in pJK90 was replaced with the PAQR6 and mPRα open reading frames by gap repair. Primers for all cloning reactions are listed herein. Proteins expressed in pYES260 have an N-terminal 6×-histidine tag followed by a TEV protease cleavage site. Proteins expressed in pGREG536 have an N-terminal 7×-HA tag. Proteins expressed in the pRS316 vector are untagged. The pYES260, pRS316 and pGREG536 vectors allow for galactose-inducible expression via the GAL1 promoter. […] A pRS316-based plasmid containing the STE2 gene under the control of the GAL1 promoter (Feng et al., 2000) was kindly provided by Dr. Nicholas G. Davis (Wayne State University).
# Assays and growth conditions. Strains were maintained using standard protocol and grown in synthetic defined (SD) media with the appropriate amino acids to match the auxotrophies of the individual strains. […] In brief, overnights of cells grown in SD-glucose media were re-inoculated into iron-deficient LIM to induce the expression of FET3. […] All ligands were added to the growth medium upon re-inoculation into LIM. For experiments in which steroids were added as ligands, steroids were added from ethanol stocks and “untreated” controls are actually treated with an equal volume of ethanol to control for vehicle effects. […] All experiments were performed at least three times and a representative experiment is shown. EC50 values were obtained using the web-based BioDataFit software using sigmoidal curve-fitting. (web site changbioscience.com/stat/ec50.html)
# [3] = biological target: T2, mPRβ (Homo sapiens, UniProt Q8TEZ7); assay: FET3-lacZ reporter repression in yeast expressing mPRβ; assay type: cell-based; conditions: Table 3, iron deficient LIM, 0.05% galactose
# T2 construct: expressed in transfected cells; host or cells: Saccharomyces cerevisiae BY4742, GAL1-driven pYES260 plasmid
# T2 sequence (Q8TEZ7 1-354): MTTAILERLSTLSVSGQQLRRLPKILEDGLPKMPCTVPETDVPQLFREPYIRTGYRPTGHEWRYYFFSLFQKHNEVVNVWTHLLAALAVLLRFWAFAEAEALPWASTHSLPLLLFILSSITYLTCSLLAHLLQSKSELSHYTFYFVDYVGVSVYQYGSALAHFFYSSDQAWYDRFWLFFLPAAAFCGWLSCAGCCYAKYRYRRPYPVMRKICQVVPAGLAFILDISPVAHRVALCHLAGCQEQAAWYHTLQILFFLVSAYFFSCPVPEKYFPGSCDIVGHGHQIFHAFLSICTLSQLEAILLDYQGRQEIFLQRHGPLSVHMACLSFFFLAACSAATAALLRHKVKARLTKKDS
# Source text: as §1, §2
smiles,measurement,setting,value
"CC(=O)[C@H]1CC[C@H]2[C@@H]3CCC4=CC(=O)CC[C@]4(C)[C@H]3CC[C@]12C [Progesterone, progesterone]",agonist effect on receptors in Classes I and III,[1],ineffective
same,pEC50,"[2]; EC50, mPRα column of Table 4, ligand alone",8.66
same,pEC50,"[2]; EC50, mPRα, Table 3, iron deficient LIM, 0.05% galactose",8.64 and 8.52 to 9.00
same,pEC50,[3],8.80 and 8.52 to 9.00
